Drawing on patent US20230102554A1 (GB002, INC., priority 2019, published 2023), this text covers IC50 for 27 molecules.

Assay [1] addresses T1, Human PDGFRβ, cytoplasmic domain (GST-PDGFRβ) (Homo sapiens, UniProt P09619).
T1 construct: made in house
Kind of assay: Human PDGFRβ biochemical inhibition assay (off-chip Mobility Shift Assay). The essentials: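 GST-tagged cytoplasmic domain (aa 557-1106) from baculovirus was incubated 1 h at room temperature with compound, CSKtide, ATP at Km and Mg²⁺ in HEPES buffer, pH 7.5. Phosphorylated and unphosphorylated peptide were separated by off-chip mobility shift, and the product ratio P/(P+S) gave percent inhibition.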

Assay [2] concerns the target T2, Human PDGFRα, cytoplasmic domain (GST-PDGFRα) (Homo sapiens, UniProt P16234).
T2 construct: made in house
Kind of assay: Human PDGFRα biochemical inhibition assay (off-chip Mobility Shift Assay).

T1 sequence (P09619 with tags, fused parts or gaps): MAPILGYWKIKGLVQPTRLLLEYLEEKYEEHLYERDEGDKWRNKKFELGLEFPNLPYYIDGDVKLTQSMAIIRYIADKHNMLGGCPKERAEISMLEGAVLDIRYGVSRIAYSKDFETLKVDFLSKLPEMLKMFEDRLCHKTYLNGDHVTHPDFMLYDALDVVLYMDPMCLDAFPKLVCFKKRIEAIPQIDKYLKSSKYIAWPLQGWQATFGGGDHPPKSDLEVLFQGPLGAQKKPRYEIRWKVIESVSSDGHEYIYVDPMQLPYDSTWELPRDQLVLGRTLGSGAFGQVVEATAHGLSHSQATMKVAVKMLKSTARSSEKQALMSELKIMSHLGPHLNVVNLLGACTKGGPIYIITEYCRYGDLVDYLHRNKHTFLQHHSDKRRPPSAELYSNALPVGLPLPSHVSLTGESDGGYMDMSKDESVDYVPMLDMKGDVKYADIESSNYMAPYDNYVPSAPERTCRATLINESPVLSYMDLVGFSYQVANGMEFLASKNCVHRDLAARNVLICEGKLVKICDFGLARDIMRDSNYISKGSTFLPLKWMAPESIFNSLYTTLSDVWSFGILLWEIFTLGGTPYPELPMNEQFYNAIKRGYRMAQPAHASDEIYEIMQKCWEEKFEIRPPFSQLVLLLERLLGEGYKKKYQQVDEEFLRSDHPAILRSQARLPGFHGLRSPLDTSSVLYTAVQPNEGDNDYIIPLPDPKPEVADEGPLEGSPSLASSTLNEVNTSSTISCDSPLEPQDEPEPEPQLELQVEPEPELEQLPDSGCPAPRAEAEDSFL
T2 sequence (P16234 550-1089 T674I): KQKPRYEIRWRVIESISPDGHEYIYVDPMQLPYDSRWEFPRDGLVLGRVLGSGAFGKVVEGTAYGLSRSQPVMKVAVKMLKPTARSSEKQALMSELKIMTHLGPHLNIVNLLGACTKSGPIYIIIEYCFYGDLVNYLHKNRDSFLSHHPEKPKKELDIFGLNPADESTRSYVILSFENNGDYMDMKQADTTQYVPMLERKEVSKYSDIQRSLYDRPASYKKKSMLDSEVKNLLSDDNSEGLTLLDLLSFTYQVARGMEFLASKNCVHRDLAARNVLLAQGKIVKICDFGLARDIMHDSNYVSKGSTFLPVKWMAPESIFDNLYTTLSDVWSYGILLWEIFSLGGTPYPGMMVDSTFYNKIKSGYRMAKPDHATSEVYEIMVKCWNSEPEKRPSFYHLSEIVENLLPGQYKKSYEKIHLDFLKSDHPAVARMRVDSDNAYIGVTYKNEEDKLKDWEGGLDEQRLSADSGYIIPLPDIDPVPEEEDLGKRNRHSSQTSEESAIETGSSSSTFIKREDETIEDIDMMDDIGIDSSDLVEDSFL

Turning to `CCn1cc2ncc(N[C@@H](C)c3cc(NC(=O)c4ccc(OC5CCN(C)CC5)c(C(F)(F)F)c4)ccc3F)nc2n1` [Compound 431, (S)-N-(3-(1-((2-ethyl-2H-pyrazolo[3,4-b]pyrazin-6-yl)amino)ethyl)-4-fluorophenyl)-4-((1-methylpiperidin-4-yl)oxy)-3-(trifluoromethyl)benzamide], the IC50 in assay [1] and in assay [2] was less than 0.3 µM in each case.

As for `C[C@H](Nc1cnc2[nH]cc(-c3cnn(C)c3)c2n1)c1cccc(NC(=O)c2cnc(C(F)(F)F)s2)c1` [Compound 582, (S)-N-(3-(1-((7-(1-methyl-1H-pyrazol-4-yl)-5H-pyrrolo[2,3-b]pyrazin-2-yl)amino)ethyl)phenyl)-2-(trifluoromethyl) thiazole-5-carboxamide], the IC50 in assay [1] and in assay [2] was 0.3 to 1 µM each time.

As for `CSc1cc(C(=O)Nc2cccc([C@H](C)Nc3cnc4cnn(C)c4n3)c2)ccc1CN1CCN(C)CC1` [Compound 238, (S)-N-(3-(1-((1-methyl-1H-pyrazolo[3,4-b]pyrazin-6-yl)amino)ethyl)phenyl)-4-((4-methylpiperazin-1-yl)methyl)-3-(methylthio)benzamide], the IC50 in assay [1] and in assay [2] was less than 0.3 µM each time.

With `CCn1cc2ncc(N[C@@H](C)c3cccc(NC(=O)c4cncc(C(C)(C)F)c4)c3)nc2n1` [Compound 280, (S)-N-(3-(1-((2-ethyl-2H-pyrazolo[3,4-b]pyrazin-6-yl)amino)ethyl)phenyl)-5-(2-fluoropropan-2-yl)nicotinamide], the 50% inhibitory concentration (IC50) in assay [1] and in assay [2] was less than 0.3 µM in each case.

On to `C[C@H](Nc1cnc2cn[nH]c2n1)c1cccc(NC(=O)c2cncc(C3COC3)c2)c1` [Compound 97, (S)-N-(3-(1-((1H-pyrazolo[3,4-b]pyrazin-6-yl)amino)ethyl)phenyl)-5-(oxetan-3-yl) nicotinamide], for which the IC50 in assay [1] and in assay [2] was less than 0.3 µM in each case.

On to `CCn1cc2ncc(N[C@@H](C)c3cc(NC(=O)c4cnc(N5CCN(C)CC5)c(C(F)(F)F)c4)ccc3F)nc2n1` [Compound 445, (S)-N-(3-(1-((2-ethyl-2H-pyrazolo[3,4-b]pyrazin-6-yl)amino)ethyl)-4-fluorophenyl)-6-(4-methylpiperazin-1-yl)-5-(trifluoromethyl)nicotinamide], for which the IC50 in assay [1] and in assay [2] was less than 0.3 µM in each case.

Consider `Cc1cncc(C(=O)Nc2cccc([C@H](C)Nc3cnc4[nH]cc(-c5ccncc5)c4n3)c2)c1` [Compound 592, (S)-5-methyl-N-(3-(1-((7-(pyridin-4-yl)-5H-pyrrolo[2,3-b]pyrazin-2-yl)amino)ethyl)phenyl)nicotinamide], for which the IC50 in assay [1] and in assay [2] was less than 0.3 µM in each case.

With `CCn1cc2ncc(N[C@@H](C)c3cc(NC(=O)c4ccc(CN5CCCC5)c(C(F)(F)F)c4)ccc3F)nc2n1` [Compound 443, (S)-N-(3-(1-((2-ethyl-2H-pyrazolo[3,4-b]pyrazin-6-yl)amino)ethyl)-4-fluorophenyl)-4-(pyrrolidin-1-ylmethyl)-3-(trifluoromethyl)benzamide], the IC50 in assay [1] and in assay [2] was less than 0.3 µM each time.

Turning to `Cc1cncc(NC(=O)Nc2cccc([C@H](C)Nc3cnc4cnn(C)c4n3)c2)c1` [Compound 731, (S)-1-(3-(1-((1-methyl-1H-pyrazolo[3,4-b]pyrazin-6-yl)amino)ethyl)phenyl)-3-(5-methylpyridin-3-yl)urea], the IC50 in assay [1] and in assay [2] was less than 0.3 µM each time.

For `CCn1cc2ncc(N[C@@H](C)c3cc(NC(=O)Cc4ccc(C(C)(C)O)cn4)ccc3C)nc2n1` [Compound 705, (S)-N-(3-(1-((2-ethyl-2H-pyrazolo[3,4-b]pyrazin-6-yl)amino)ethyl)-4-methylphenyl)-2-(5-(2-hydroxypropan-2-yl)pyridin-2-yl)acetamide], the half-maximal inhibitory concentration (IC50) in assay [1] and in assay [2] was no less than 1 µM each time.

With `CC(C)Cn1ccc(C(=O)Nc2cccc([C@H](C)Nc3cnc4cnn(C)c4n3)c2)n1` [Compound 157, (S)-1-isobutyl-N-(3-(1-((1-methyl-1H-pyrazolo[3,4-b]pyrazin-6-yl)amino)ethyl)phenyl)-1H-pyrazole-3-carboxamide], the IC50 in assay [1] and in assay [2] was less than 0.3 µM throughout.

In the case of `CCn1cc2ncc(N[C@@H](C)c3cc(NC(=O)Cc4ccc(C)nc4)ccc3F)nc2n1` [Compound 651, (S)-N-(3-(1-((2-ethyl-2H-pyrazolo[3,4-b]pyrazin-6-yl)amino)ethyl)-4-fluorophenyl)-2-(6-methylpyridin-3-yl) acetamide], the IC50 in assay [1] was no less than 1 µM; in assay [2], less than 0.3 µM.

For the molecule `CC(=O)Oc1cccc(C(=O)Nc2cccc([C@H](C)Nc3cnc4cnn(C)c4n3)c2)c1` [Compound 215, (S)-3-((3-(1-((1-methyl-1H-pyrazolo[3,4-b]pyrazin-6-yl)amino)ethyl)phenyl)carbamoyl) phenyl acetate], the 50% inhibitory concentration (IC50) in assay [1] and in assay [2] was less than 0.3 µM each time.

On to `CCn1cc2ncc(N[C@@H](C)c3cc(NC(=O)Cc4ccc(C5CCC5)nc4)ccc3C)nc2n1` [Compound 672, (S)-2-(6-cyclobutylpyridin-3-yl)-N-(3-(1-((2-ethyl-2H-pyrazolo[3,4-b]pyrazin-6-yl)amino)ethyl)-4-methylphenyl) acetamide], for which the concentration for half-maximal inhibition (IC50) is no less than 1 µM in assay [1] and less than 0.3 µM in assay [2].

Turning to `Cc1cc(C(=O)Nc2cccc([C@H](C)Nc3cnc4cnn(C)c4n3)c2)cnc1Cl` [Compound 200, (S)-6-chloro-5-methyl-N-(3-(1-((1-methyl-1H-pyrazolo[3,4-b]pyrazin-6-yl)amino)ethyl)phenyl)nicotinamide], the IC50 in assay [1] and in assay [2] was less than 0.3 µM each time.

Consider `CCn1cc2ncc(N[C@@H](C)c3cccc(NC(=O)Cc4cccc(Cl)c4)c3)nc2n1` [Compound 621, (S)-2-(3-chlorophenyl)-N-(3-(1-((2-ethyl-2H-pyrazolo[3,4-b]pyrazin-6-yl)amino)ethyl)phenyl)acetamide], for which the IC50 in assay [1] and in assay [2] was less than 0.3 µM throughout.

As to `C[C@H](Nc1cnc2cnn(C)c2n1)c1cccc(NC(=O)c2ccc(C(F)(F)F)s2)c1` [Compound 137, (S)-N-(3-(1-((1-methyl-1H-pyrazolo[3,4-b]pyrazin-6-yl)amino)ethyl)phenyl)-5-(trifluoromethyl)thiophene-2-carboxamide], the IC50 in assay [1] and in assay [2] was less than 0.3 µM each time.

Take `Cc1cc(C(=O)Nc2cccc([C@H](C)Nc3cnc4cnn(C)c4n3)c2)cnc1NC(C)C` [Compound 198, (S)-6-(isopropylamino)-5-methyl-N-(3-(1-((1-methyl-1H-pyrazolo[3,4-b]pyrazin-6-yl)amino)ethyl)phenyl) nicotinamide]: the IC50 in assay [1] and in assay [2] was less than 0.3 µM in each case.

In the case of `Cc1cncc(C(=O)Nc2cccc([C@H](C)Nc3cnc4cnn(-c5ccccc5)c4n3)c2)c1` [Compound 271, (S)-5-methyl-N-(3-(1-((1-phenyl-1H-pyrazolo[3,4-b]pyrazin-6-yl)amino)ethyl)phenyl)nicotinamide], the IC50 in assay [1] and in assay [2] was less than 0.3 µM in each case.

For the molecule `CCn1cc2ncc(N[C@@H](C)c3cccc(NC(=O)c4cnc(N(C)C)s4)c3)nc2n1` [Compound 340, (S)-2-(dimethylamino)-N-(3-(1-((2-ethyl-2H-pyrazolo[3,4-b]pyrazin-6-yl)amino)ethyl)phenyl)thiazole-5-carboxamide], the IC50 in assay [1] and in assay [2] was less than 0.3 µM each time.

In the case of `CCn1cc2ncc(N[C@@H](C)c3cccc(NC(=O)c4cnc(NC(C)C)c(C)c4)c3)nc2n1` [Compound 371, (S)-N-(3-(1-((2-ethyl-2H-pyrazolo[3,4-b]pyrazin-6-yl)amino)ethyl)phenyl)-6-(isopropylamino)-5-methylnicotinamide], the IC50 in assay [1] was 0.3 to 1 µM; in assay [2] it was less than 0.3 µM.

For the molecule `Cc1c[nH]c2ncc(N[C@@H](C)c3cccc(NC(=O)c4ccc(C(F)F)s4)c3)nc12` [Compound 560, (S)-5-(difluoromethyl)-N-(3-(1-((7-methyl-5H-pyrrolo[2,3-b]pyrazin-2-yl)amino)ethyl)phenyl)thiophene-2-carboxamide], the IC50 in assay [1] and in assay [2] was less than 0.3 µM throughout.

As for `C[C@H](Nc1cnc2cnn(C)c2n1)c1cccc(NC(=O)c2cnc(C(F)(F)F)s2)c1` [Compound 139, (S)-N-(3-(1-((1-methyl-1H-pyrazolo[3,4-b]pyrazin-6-yl)amino)ethyl)phenyl)-2-(trifluoromethyl)thiazole-5-carboxamide], the IC50 in assay [1] and in assay [2] was less than 0.3 µM throughout.

As for `CCn1cc2ncc(N[C@@H](C)c3cc(NC(=O)c4ccc(C(F)(F)F)nc4)cc(F)c3F)nc2n1` [Compound 491, (S)-N-(3-(1-((2-ethyl-2H-pyrazolo[3,4-b]pyrazin-6-yl)amino)ethyl)-4,5-difluorophenyl)-6-(trifluoromethyl)nicotinamide], the IC50 in assay [1] and in assay [2] was 0.3 to 1 µM in each case.

On to `CCn1cc2ncc(N[C@@H](C)c3cccc(NC(=O)c4ccc(C(F)(F)F)c(C)c4)c3)nc2n1` [Compound 439, (S)-N-(3-(1-((2-ethyl-2H-pyrazolo[3,4-b]pyrazin-6-yl)amino)ethyl)phenyl)-3-methyl-4-(trifluoromethyl)benzamide], for which the IC50 in assay [1] and in assay [2] was less than 0.3 µM in each case.

Take `Cc1cncc(C(=O)Nc2cccc([C@H](C)Nc3cnc4ccoc4c3)c2)c1` [Compound 604, (S)-N-(3-(1-(furo[3,2-b]pyridin-6-ylamino)ethyl)phenyl)-5-methylnicotinamide]: the IC50 in assay [1] was 0.3 to 1 µM; in assay [2], less than 0.3 µM.

Take `CCn1cc2ncc(N[C@@H](C)c3cc(NC(=O)Cc4ccc(C)cn4)ccc3F)nc2n1` [Compound 689, (S)-N-(3-(1-((2-ethyl-2H-pyrazolo[3,4-b]pyrazin-6-yl)amino)ethyl)-4-fluorophenyl)-2-(5-methylpyridin-2-yl) acetamide]: the values for the IC50 in assay [1] and in assay [2] were no less than 1 µM and less than 0.3 µM, respectively.

As usually defined, the IC50 is the point on the concentration scale where inhibition reaches its midpoint.
